# Where a SMILES comes first, the peptide text is derived from it. [ ]: non-standard residue; d: D form. pT = C[C@@H](OP(=O)(O)O)[C@H](N)C(=O)O; 2Nal = N[C@@H](Cc1ccc2ccccc2c1)C(=O)O; Bta = N[C@@H](Cc1csc2ccccc12)C(=O)O; Pip = O=C(O)[C@@H]1CCCCN1
# Experiments:
# Pin1 [1] = molecular target: T1, Pin1 (Homo sapiens, UniProt Q13526); test: Pin1 inhibition by retinoids in a cell culture model; type: cell-based
# T1 construct: We performed FP-HTS in a 384-well plate format with full length Pin1
# Procedure: As trans-RA is selected as the current lead compound, it is important to identify the essential moiety of RAs on Pin1 interaction for further lead optimization. Many commercially available retinoids were tested for Pin1 inhibition. […] Other RA compounds that are metabolized to contain an end carboxylic group are also likely to be useful in treating proliferative disorders (FIG. 10D). In addition, compounds that modulate the retinoic acid receptor (FIGS. 10D and 11A and compounds listed in Table 1) are also likely to be useful in treating proliferative disorders.
# SKBR3 = test: cell viability; type: cell-based, human
# Source text: (§1) This discrepancy between cell lines was correlated with the RAs' ability to suppress Pin1 expression. Pin1 level was decreased by treatment of RAs in drugs-responsive SKBR3 and T47D, but not in drugs-irresponsive normal cells, MCF10A (FIG. 7B), in which Pin1 target protein, cyclin D1, was served as biomarkers of in vivo Pin1 activity. […] To further confirm this premise, wild-type mouse embryonic fibroblast (WT MEF) and Pin1 knockout MEF (Pin1 KO MEF) were used to test trans-RA-mediated cell viability (FIGS. 9A-C). […] In addition, Pin1 KO MEF stably expressing WT Pin1, but not W34/K63A Pin1 mutant, enabled cells to re-sensitize trans-RA.
# Pin1 [2] = molecular target: T1, Pin1; test: single-step fluorescence polarization-based displacement assay (FP-HTS); type: binding
# Procedure: We used the FP-HTS with a 5 nM probe and 200 nM Pin1 to conduct a pilot screen on a selected set of chemical libraries.
# Pin1 and DAPK1 = Pin1 and DAPK1 (Homo sapiens, UniProt Q13526); test: association between Pin1 and DAPK1 (competition); type: binding; details: dose-dependent manner, trans being more potent
# Pin1 and DAPK1, sequence (Q13526 whole entry): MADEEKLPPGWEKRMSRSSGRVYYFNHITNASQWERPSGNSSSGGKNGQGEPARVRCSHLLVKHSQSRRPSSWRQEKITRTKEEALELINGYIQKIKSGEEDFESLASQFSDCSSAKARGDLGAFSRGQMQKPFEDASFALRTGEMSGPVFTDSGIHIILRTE
# breast cancer cells = test: cis-RA-mediated cell death with RARα knockdown; type: cell-based
# MCF10A = test: cell viability; type: cell-based; details: normal cell line MCF10A
# Source text: as §1
# T47D = test: cell viability; type: cell-based
# Source text: as §1
# Pin1 [3] = molecular target: T1, Pin1; test: PPIase assay; type: biochemical; details: dose-dependent manner
# Procedure: (§2) We used the FP-HTS with a 5 nM probe and 200 nM Pin1 to conduct a pilot screen on a selected set of chemical libraries. We obtained the resulting potential positive hits and grouped them into 3 classes according to the Z-score, which is folds of standard deviation below the mean. […] 1) cis-RA is not listed in promiscuous inhibitor databases 2) all-trans retinoic acid (trans-RA), the pairing compound of cis-RA, is currently used as oral prescription for patients with acute promyelocytic leukemia […]; 3) both cis-RA and trans-RAs are used as a medication in the phase II/III clinical trial for breast cancer, and more because of its ability to kill rapidly dividing cells; and 4) although it has been reported that RAs target on retinoic acid receptor (RAR), the exact mechanism of the anticancer action is unknown. As a result, we examined whether the anti-cancer effect of RAs depends on RAR in the breast cancer cells. […] In the PPIase assay, Pin1 activity was blocked by either cis- or trans-RA in a dose-dependent manner (FIG. 4).
# [4] = tested on: Pin1 K63A, S67E, R68/69A, H59A or S71E; test: trans-RA binding to Pin1 point mutants; details: point mutations K63A
# Procedure: as §2
# WT MEF and Pin1 KO MEF = test: trans-RA-mediated cell viability in MEF; type: cell-based, mouse
# Source text: as §1
# T1 sequence (Q13526 whole entry): as above
Compound,Pin1 inhibition (Pin1 [1]),IC50 (cell viability) (SKBR3),association between Pin1 and DAPK1 (Pin1 and DAPK1),cell viability (MCF10A),IC50 (cell viability) (T47D),Pin1 activity (Pin1 [3]),also measured
CCCCCCCCc1ccc(-c2ccc(C(=O)O)cc2)cc1 [AC-55649],maintained Pin1 inhibition,–,–,–,–,–,–
COc1cc(C)c(/C=C/C(C)=C/C=C/C(C)=C/C(=O)O)c(C)c1C [acitretin],maintained Pin1 inhibition,–,–,–,–,–,–
"CC1=C(/C=C/C(C)=C/C=C/C(C)=C\C(=O)O)C(C)(C)CCC1 [cis-RA, (2Z,4E,6E,8E)-3,7-dimethyl-9-(2,6,6-trimethylcyclohexen-1-yl)nona-2,4,6,8-tetraenoic acid]",maintained Pin1 inhibition,nano-molar range,blocked,remained unaffected,nano-molar range,blocked,pilot screen hit class according to Z-score (Pin1 [2]; 5 nM probe and 200 nM Pin1): top strong chemical; Pin1 inhibition in the FP assay (Pin1 [2]; long-term incubation with Pin1): eventually catch up with trans-RA; rescue of cis-RA-mediated cell death (breast cancer cells): only partially rescue
"C[C@@H](OP(=O)(O)O)[C@H](NC(=O)[C@@H](N)Cc1csc2ccccc12)C(=O)N1CCCC[C@H]1C(=O)N[C@@H](Cc1ccc2ccccc2c1)C(=O)O [pTide, Bth-L-phos.Thr-Pip-Nal] (H-[Bta][pT][Pip][2Nal]-OH; N-terminus and C-terminus assumed)",–,–,–,–,–,–,displacement of HF488 probe from Pin1 (Pin1 [2]): displaced
"CC1=C(/C=C/C(C)=C/C=C/C(C)=C/C(=O)O)C(C)(C)CCC1 [trans-RA, (2E,4E,6E,8E)-3,7-dimethyl-9-(2,6,6-trimethylcyclohexen-1-yl)nona-2,4,6,8-tetraenoic acid]",maintained Pin1 inhibition,nano-molar range,blocked,remained unaffected,nano-molar range,blocked,trans-RA binding to Pin1 [4]: completely or significantly abolished; cell viability (WT MEF and Pin1 KO MEF; Pin1 KO MEF compared with WT MEF): more resistant; cell viability (WT MEF and Pin1 KO MEF; Pin1 KO MEF stably expressing WT Pin1): re-sensitize; Pin1 inhibition in the FP assay (Pin1 [2]; compared with cis-RA): more prominent Pin1 inhibition than cis-RA

# Reference: patent US10265288B2, “Methods and compositions for the treatment of proliferative disorders” (Beth Israel Deaconess Medical Center, Inc., priority 2011, dated 2019)
